One may read the EC50 as the concentration that produces a half-maximal response. Read a low EC50 as higher potency in that assay.

Experimental findings from patent US20220033407A1, “N-(pyridin-2-ylsulfonyl)cyclopropanecarboxamide Derivatives and their Use in the Treatment of Disease” (NOVARTIS AG, priority 2018, published 2022) are described below.

This assay concerns the target T1, delF508-CFTR-HRP (Homo sapiens, UniProt P13569, DEL508-508).
T1 construct: expressed in transfected cells
Kind of assay: Measurement of delF508-CFTR-HRP surface expression in CFBE41o- cells (HRP luminescence).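 On DelF508-CFTR-HRP Amax %: percent efficacy relative to a reference CFTR corrector compound.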 The assay is classed as cell-based. To be noted: for Emax: CFBE41o-, read-out: DelF508-CFTR-HRP Amax %; for EC50: mean of at least two replicates. The gist of the method:
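Stably transfected CFBE41o- cells carrying HRP in the fourth extracellular loop of delF508-CFTR, induced with 500 ng/mL doxycycline for 48 h, then compound-treated 24 h at 37° C (10-point, 3-fold, top 10 μM). Surface HRP detected by luminescent substrate; EC50 from logistic fit, triplicates, normalized to lowest-concentration median.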

T1 sequence (P13569 with tags, fused parts or gaps DEL508-508): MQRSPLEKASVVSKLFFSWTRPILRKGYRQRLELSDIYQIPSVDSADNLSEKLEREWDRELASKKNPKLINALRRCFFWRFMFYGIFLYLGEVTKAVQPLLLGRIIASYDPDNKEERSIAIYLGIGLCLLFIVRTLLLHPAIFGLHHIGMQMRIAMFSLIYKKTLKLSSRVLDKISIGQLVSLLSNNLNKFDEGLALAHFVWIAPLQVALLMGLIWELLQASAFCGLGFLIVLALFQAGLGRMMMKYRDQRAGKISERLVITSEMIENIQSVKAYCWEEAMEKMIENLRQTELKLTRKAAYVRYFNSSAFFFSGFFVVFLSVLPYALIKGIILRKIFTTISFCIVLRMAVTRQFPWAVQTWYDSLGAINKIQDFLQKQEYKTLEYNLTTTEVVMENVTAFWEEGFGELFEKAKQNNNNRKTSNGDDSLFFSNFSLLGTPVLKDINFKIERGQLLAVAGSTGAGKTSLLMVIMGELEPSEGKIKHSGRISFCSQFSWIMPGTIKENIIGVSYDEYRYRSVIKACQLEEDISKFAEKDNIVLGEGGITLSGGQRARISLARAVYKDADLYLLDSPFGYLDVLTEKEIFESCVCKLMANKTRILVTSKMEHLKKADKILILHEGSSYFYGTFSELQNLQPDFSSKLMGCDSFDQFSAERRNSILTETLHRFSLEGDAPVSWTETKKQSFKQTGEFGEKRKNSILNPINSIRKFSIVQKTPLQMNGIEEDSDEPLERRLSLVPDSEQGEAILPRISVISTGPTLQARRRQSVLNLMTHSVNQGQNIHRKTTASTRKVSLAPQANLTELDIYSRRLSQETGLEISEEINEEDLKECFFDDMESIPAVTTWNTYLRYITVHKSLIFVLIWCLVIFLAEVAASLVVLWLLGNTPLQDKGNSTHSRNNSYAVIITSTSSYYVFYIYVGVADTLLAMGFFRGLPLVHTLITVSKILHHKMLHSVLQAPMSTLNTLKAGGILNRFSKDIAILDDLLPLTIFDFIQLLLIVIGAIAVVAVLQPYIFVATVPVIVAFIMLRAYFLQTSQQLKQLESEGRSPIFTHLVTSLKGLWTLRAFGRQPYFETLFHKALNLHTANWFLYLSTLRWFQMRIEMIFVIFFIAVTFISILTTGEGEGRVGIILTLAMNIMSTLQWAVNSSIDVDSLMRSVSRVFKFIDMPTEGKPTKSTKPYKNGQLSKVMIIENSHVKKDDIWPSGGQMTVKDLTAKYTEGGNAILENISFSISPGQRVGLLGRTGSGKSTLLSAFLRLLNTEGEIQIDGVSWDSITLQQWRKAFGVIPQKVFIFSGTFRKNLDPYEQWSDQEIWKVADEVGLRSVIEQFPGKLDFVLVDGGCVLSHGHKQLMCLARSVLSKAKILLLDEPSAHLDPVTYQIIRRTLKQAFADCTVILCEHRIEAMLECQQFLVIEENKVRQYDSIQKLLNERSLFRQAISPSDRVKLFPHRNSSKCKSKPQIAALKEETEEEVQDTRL

Take `CC1(C)CCCN(c2ccc(Cl)cc2OC2(C(=O)NS(=O)(=O)c3cccc(N4CCC(O)(C(F)(F)F)CC4)n3)CC2)C1` [Example 10-7, 1-(5-chloro-2-(3,3-dimethylpiperidin-1-yl)phenoxy)-N-((6-(4-hydroxy-4-(trifluoromethyl)piperidin-1-yl)pyridin-2-yl)sulfonyl)cyclopropanecarboxamide]: the Emax was found to be 604% and the EC50 came to 0.16 µM.

As for `Cc1ccc(OC2CCC(C(C)(C)C)CC2)c(OC2(C(=O)NS(=O)(=O)c3cccc(N4CC[C@H](O)C4)n3)CC2)c1` (stereo partly drawn) [Example 6-4, (S)-1-(2-((4-(tert-butyl)cyclohexyl)oxy)-5-methylphenoxy)-N-((6-(3-hydroxypyrrolidin-1-yl)pyridin-2-yl)sulfonyl)cyclopropanecarboxamide], the Emax amounted to 526% and the EC50 was found to be 0.33 µM.

Turning to `Cc1ccc(C2CC(F)(F)C2)c(OC2(C(=O)NS(=O)(=O)c3cccc(N4CC(C)(O)C4)n3)CC2)c1` [Example 4-3, 1-(2-(3,3-Difluorocyclobutyl)-5-methylphenoxy)-N-((6-(3-hydroxy-3-methylazetidin-1-yl)pyridin-2-yl)sulfonyl)cyclopropanecarboxamide], the Emax is 158% and the response was half-maximal at 4.52 µM (EC50).

As for `CC(C)(C)C1CCN(c2ccc(Cl)cc2OC2(C(=O)NS(=O)(=O)c3cccc(N4CC[C@H](O)C4)n3)CC2)CC1` [Example 9-34, (S)-1-(2-(4-(Tert-butyl)piperidin-1-yl)-5-chlorophenoxy)-N-((6-(3-hydroxypyrrolidin-1-yl)pyridin-2-yl)sulfonyl)cyclopropanecarboxamide], the Emax stood at 152% and the EC50 was 0.91 µM.

Turning to `CC1(C)CCN(c2ccc(Cl)cc2OC2(C(=O)NS(=O)(=O)c3cccc(N4CCCC(C)(O)C4)n3)CC2)CC1` (single isomer, unassigned) [Example 9-43-1, 1-(5-Chloro-2-(4,4-dimethylpiperidin-1-yl)phenoxy)-N-((6-(3-hydroxy-3-methylpiperidin-1-yl)pyridin-2-yl)sulfonyl)cyclopropane-1-carboxamide], the “DelF508-CFTR-HRP Amax %” value stood at 545.9% and a half-maximal response (EC50) required 1.17 µM.

`Cc1ccc(C2CCC3(CCC3)OC2)c(OC2(C(=O)NS(=O)(=O)c3cccc(N4CCC(C)(O)CC4)n3)CC2)c1` (single isomer, unassigned) [Example 11-4-2, N-((6-(4-hydroxy-4-methylpiperidin-1-yl)pyridin-2-yl)sulfonyl)-1-(5-methyl-2-(5-oxaspiro[3.5]nonan-7-yl)phenoxy)cyclopropane-1-carboxamide]: the “DelF508-CFTR-HRP Amax %” value was found to be 242.9% and the EC50 is 2.65 µM.

Regarding `CC1(C)CCCN(c2ccc(Cl)cc2OC2(C(=O)NS(=O)(=O)c3cccc(N4CC[C@H](O)C4)n3)CC2)C1` [Example 9-4, (S)-1-(5-chloro-2-(3,3-dimethylpiperidin-1-yl)phenoxy)-N-((6-(3-hydroxypyrrolidin-1-yl)pyridin-2-yl)sulfonyl)cyclopropanecarboxamide], the Emax was found to be 835% and it took 0.75 µM to reach a half-maximal effect (EC50).

Regarding `CC1(C)CCN(c2ccc(Cl)cc2OC2(C(=O)NS(=O)(=O)c3cccc(N4CCN5C(=O)CCC5C4)n3)CC2)CC1` (stereo not shown) [Example 10-10, 1-(8-chloro-2-(4,4-dimethylpiperidin-1-yl)phenoxy)-N-((6-(6-oxohexahydropyrrolo[1,2-a]pyrazin-2(1H)-yl)pyridin-2-yl)sulfonyl)cyclopropanecarboxamide], the Emax amounted to 210% and the EC50 came to 2.62 µM.
